Patent US9744145B1, “Methods for treating lung cancer” (Macau University of Science and Technology, priority 2017, dated 2017)

Columns and labels:
A549 cells = assay: Apoptosis assay, Annexin V/PI flow cytometry, A549; assay type: cell-based; conditions: 24, 48 and 72 hours, vs control group
Procedure: (§1) A549 and H1975 cells (1×10^5 cells/well) were seeded in a well plate with 6 wells for 24 hours, and treated with the indicated concentrations of formula I for an additional 24 hours, 48 hours and 72 hours at 37° C. After indicated hours, the cells were washed by ice-cold 1×PBS once and harvested by trypsination. Then cells were centrifuged, collected, and resuspended in ice-cold 1×PBS. After removing the supernatants, cell pellets were re-suspended in 100 μL 1×Annexin-binding buffer. The cells were then double-stained with Annexin-V FITC and PI (100 μg/mL) of 2 μL respectively for 15 min at room temperature in dark. After that, 300 μL 1× Annexin-binding buffer was added. Apoptotic cells were quantitatively counted by a BD Aria III Flow Cytometer (BD Biosciences, San Jose, Calif., USA)

H1975 cells = assay: Apoptosis assay, Annexin V/PI flow cytometry, H1975; assay type: cell-based; conditions: 24, 48 and 72 hours, vs control group
Procedure: as §1

[1] = test system: PKM2 phosphorylation / AKT pathway in A549 cells; assay: Western blot analysis, A549; assay type: cell-based
Procedure: (§2) After incubation A549 and H1975 cells with formula I for 24 hours and 72 hours, A549 and H1975 cells were harvested and washed with cold 1×PBS. Then, cells were lysed with ice-cold RIPA lysis buffer with protease, and phosphatase inhibitors were added to extract the cell protein extraction. The supernatants were collected by centrifugation at 12,000 g, for 5 minutes. The quantitation of total protein extraction was measured by Bio-Rad DCTM protein assay kit (Bio-Rad, Philadelphia, Pa., USA). Then 30 μg of protein were loaded and electrophoretically separated on 8% SDS-PAGE gel and then transferred to Nitrocellulose (NC) membrane. Membranes were blocked with 5% non-fat milk and […] containing 0.1% Tween-20 (TBST) for 1 hour at room temperature. After 1 hour, membranes were incubated with primary anti-bodies (1:1000 dilution) against β-actin, total/phosphor-PKM2, total/phosphor-AKT, and BCL-2 at 4° C. with gently shaking overnight. Membranes were washed with TBST for 3 times (5 minutes/time), and incubated with secondary fluorescent antibody (1:10000 dilutions) for 1 hour at room temperature. Rewashing with TBST for 3 times (15 minutes/time), the stripes were visualized by LI-COR Odessy scanner (Belfast, Me., USA).

[2] = test system: PKM2 phosphorylation / AKT pathway in H1975 cells; assay: Western blot analysis, H1975; assay type: cell-based
Procedure: as §2

PKM2 enzyme = PKM2 enzyme (Homo sapiens, UniProt P14618); assay: PKM2 enzyme activity assay (KINASE GLO Plus); assay type: biochemical
PKM2 enzyme, sequence (P14618 whole entry): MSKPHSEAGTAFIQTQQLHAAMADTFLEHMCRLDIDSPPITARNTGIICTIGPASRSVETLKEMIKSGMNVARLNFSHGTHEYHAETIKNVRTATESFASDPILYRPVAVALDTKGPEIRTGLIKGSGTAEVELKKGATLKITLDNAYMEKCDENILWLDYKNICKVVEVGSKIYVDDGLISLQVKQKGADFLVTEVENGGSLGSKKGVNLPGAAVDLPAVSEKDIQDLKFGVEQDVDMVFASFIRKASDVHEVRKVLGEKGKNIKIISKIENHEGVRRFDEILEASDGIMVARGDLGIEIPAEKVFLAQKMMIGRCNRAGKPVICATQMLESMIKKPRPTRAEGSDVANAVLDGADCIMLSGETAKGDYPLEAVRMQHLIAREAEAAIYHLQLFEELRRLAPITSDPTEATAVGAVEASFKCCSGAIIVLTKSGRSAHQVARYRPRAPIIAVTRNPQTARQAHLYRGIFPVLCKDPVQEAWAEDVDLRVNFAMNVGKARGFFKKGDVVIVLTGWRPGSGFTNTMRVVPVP
Procedure: 5. PKM2 Enzyme Activity Assay
PKM2 biochemical assay Compounds were pre-incubated with 2 nmol/L PKM2 enzyme in reaction buffer (50 mmol/L Tris-HCl, pH 8.0, 200 mmol/L KCl, 30 mmol/L MgCl2, 2 mmol/L dithiothreitol (DTT), 5% DMSO) for 30 minutes at room temperature. ADP and PEP were then added to final concentrations of […] and 15 mmol/L, respectively. After 30 minutes, ATP formation was measured by KINASE GLO® Plus from Promega, and Concentration at half-maximal activation (AC50) values were determined using Prism GraphPad Software.
PKM2 enzyme activity assay over the concentration of formula I was performed in KINASE GLO® Plus assay. The controls were conducted in the presence of 5% Dimethyl sulfoxide (DMSO) and normalized to 100%±SD. […] (n=3, **p<0.005, ***p<0.001). […] The maximum PKM2 enzyme activity was more than 200% compared to that in controls.

O=S(=O)(Nc1ccccc1)c1ccc(-c2ccc(S(=O)(=O)Nc3ccccc3)cc2)cc1 [formula I]
apoptosis level (A549 cells): induced significant level of apoptosis in a concentration-dependent manner | apoptosis level (H1975 cells): induced significant level of apoptosis in a concentration-dependent manner | AKT pathway [1]: selectively inhibited AKT pathway | PKM2 phosphorylation ([1]; β-actin loading control): activated phosphorylation of both PKM2 in a dose-dependent manner | AKT pathway [2]: selectively inhibited AKT pathway | PKM2 phosphorylation ([2]; β-actin loading control): activated phosphorylation of both PKM2 in a dose-dependent manner | AC50 (PKM2 enzyme; 2 nmol/L PKM2, KINASE GLO Plus, n=3, read-out: AC50 (concentration at half-maximal activation)): 5.5 ± 1 µM | maximum PKM2 enzyme activity compared to controls (PKM2 enzyme; controls with 5% DMSO normalized to 100%): more than 200%
